From ChEMBL document CHEMBL3045569, “Synthesis of allyl esters of fatty acids and their ovicidal effect on Cydia pomonella (L.)” (2009)
In brackets after ≈: the same amount, converted by molar mass. Activity calls are given as the source filed them. The calls are words filed in the database; no cut-off is given here.

Columns and labels:
[1] = tested on: Cydia pomonella; experiment: Ovicidal activity against <24 hr-old Cydia pomonella (codling moth) eggs assessed as mortality at the stage of red ring development at 10 mg/ml applied as 0.1 ul drop solution topically measured for 3 days (acetone Rvb = 4.4 +/-0.22%); type: functional; conditions: topical, 72 h
[2] = tested on: Cydia pomonella; experiment: Ovicidal activity against <24 hr-old Cydia pomonella (codling moth) eggs assessed as corrected mortality at 5 mg/ml applied as 0.1 ul drop solution topically measured for 3 days; type: functional; conditions: topical, 72 h
[3] = tested on: Cydia pomonella; experiment: Ovicidal activity against <24 hr-old Cydia pomonella (codling moth) eggs assessed as corrected mortality at 1.75 mg/ml applied as 0.1 ul drop solution topically measured for 3 days; type: functional; conditions: topical, 72 h
[4] = tested on: Cydia pomonella; experiment: Ovicidal activity against <24 hr-old Cydia pomonella (codling moth) eggs assessed as corrected mortality at 10 mg/ml applied as 0.1 ul drop solution topically measured for 3 days; type: functional; conditions: topical, 72 h
[5] = tested on: Cydia pomonella; experiment: Ovicidal activity against <24 hr-old Cydia pomonella (codling moth) eggs assessed as mortality applied as 0.1 ul drop solution topically measured for 3 days; type: functional; conditions: for LC50: Cydia pomonella, topical, 72 h
[6] = tested on: Cydia pomonella; experiment: Ovicidal activity against <24 hr-old Cydia pomonella (codling moth) eggs assessed as corrected mortality at 0.1 mg/ml applied as 0.1 ul drop solution topically measured for 3 days; type: functional; conditions: topical, 72 h
[7] = tested on: Cydia pomonella; experiment: Ovicidal activity against <24 hr-old Cydia pomonella (codling moth) eggs assessed as mortality at the stage of white head development at 10 mg/ml applied as 0.1 ul drop solution topically measured for 3 days (acetone Rvb = 1.1 +/-0.44%); type: functional; conditions: topical, 72 h
[8] = tested on: Cydia pomonella; experiment: Ovicidal activity against <24 hr-old Cydia pomonella (codling moth) eggs assessed as corrected mortality at 7.5 mg/ml applied as 0.1 ul drop solution topically measured for 3 days; type: functional; conditions: topical, 72 h
[9] = tested on: Cydia pomonella; experiment: Ovicidal activity against <24 hr-old Cydia pomonella (codling moth) eggs assessed as mortality at the stage of black head development at 10 mg/ml applied as 0.1 ul drop solution topically measured for 3 days (acetone Rvb = 94.4 +/-0.1%); type: functional; conditions: topical, 72 h
[10] = tested on: Cydia pomonella; experiment: Ovicidal activity against <24 hr-old Cydia pomonella (codling moth) eggs assessed as corrected mortality at 0.5 mg/ml applied as 0.1 ul drop solution topically measured for 3 days; type: functional; conditions: topical, 72 h
[11] = tested on: Cydia pomonella; experiment: Ovicidal activity against <24 hr-old Cydia pomonella (codling moth) eggs assessed as corrected mortality at 2.5 mg/ml applied as 0.1 ul drop solution topically measured for 3 days; type: functional; conditions: topical, 72 h
[12] = tested on: Cydia pomonella; experiment: Ovicidal activity against <24 hr-old Cydia pomonella (codling moth) eggs assessed as corrected mortality at 1 mg/ml applied as 0.1 ul drop solution topically measured for 3 days; type: functional; conditions: topical, 72 h
[13] = tested on: Cydia pomonella; experiment: Ovicidal activity against <24 hr-old Cydia pomonella (codling moth) eggs assessed as increase in duration of the development of eggs applied as 0.1 ul drop solution topically measured for 3 days; type: functional, organism-based

C=CCOC(=O)CCCCCCCCC [ALLYL DECANOATE]
mortality at 10000 µg/mL [1]: 16.7% | mortality at 5000 µg/mL [2]: 98.7% | mortality at 1750 µg/mL [3]: 76.3% | mortality at 10000 µg/mL [4]: 100% | LC90 [5]: 2260 µg/mL (≈ 10.6 mM) | LC50 [5]: 1400 µg/mL (≈ 6.59 mM) | mortality at 100 µg/mL [6]: 7.4% | mortality at 10000 µg/mL [7]: 68.9% | mortality at 7500 µg/mL [8]: 100% | mortality at 10000 µg/mL [9]: 14.4% | mortality at 500 µg/mL [10]: 12.4% | mortality at 2500 µg/mL [11]: 97.2% | mortality at 1000 µg/mL [12]: 30.5% | Activity [13]: Active

C=CCOC(=O)CCC [ALLYL BUTANOATE]
mortality at 10000 µg/mL [1]: 14.4% | mortality at 5000 µg/mL [2]: 98.7% | mortality at 1750 µg/mL [3]: 72% | mortality at 10000 µg/mL [4]: 100% | LC90 [5]: 3200 µg/mL (≈ 25 mM) | LC50 [5]: 1060 µg/mL (≈ 8.27 mM) | mortality at 100 µg/mL [6]: 6% | mortality at 10000 µg/mL [7]: 75.6% | mortality at 7500 µg/mL [8]: 100% | mortality at 10000 µg/mL [9]: 10% | mortality at 500 µg/mL [10]: 20.5% | mortality at 2500 µg/mL [11]: 83.3% | mortality at 1000 µg/mL [12]: 42.7% | Activity [13]: Active

C=CCOC(=O)CCCCCCCCCCCCCCC [HEXADECANOIC ACID ALLYL ESTER]
mortality at 10000 µg/mL [1]: 24.4% | mortality at 5000 µg/mL [2]: 72.2% | mortality at 1750 µg/mL [3]: 32.6% | mortality at 10000 µg/mL [4]: 100% | LC90 [5]: 7970 µg/mL (≈ 26.9 mM) | LC50 [5]: 2460 µg/mL (≈ 8.3 mM) | mortality at 100 µg/mL [6]: 0% | mortality at 10000 µg/mL [7]: 28.9% | mortality at 7500 µg/mL [8]: 87.2% | mortality at 10000 µg/mL [9]: 46.7% | mortality at 500 µg/mL [10]: 0% | mortality at 2500 µg/mL [11]: 66.6% | mortality at 1000 µg/mL [12]: 6% | Activity [13]: Active

CCOC(=O)NCCOc1ccc(Oc2ccccc2)cc1 [PHENOXYCARB]
mortality at 500 µg/mL [10]: 100%

C=CCOC(=O)CCCCC [ALLYL HEXANOATE]
mortality at 10000 µg/mL [1]: 13.3% | mortality at 5000 µg/mL [2]: 98.7% | mortality at 1750 µg/mL [3]: 83.8% | mortality at 10000 µg/mL [4]: 100% | LC90 [5]: 2130 µg/mL (≈ 13.6 mM) | mortality at 100 µg/mL [6]: 8.4% | mortality at 10000 µg/mL [7]: 67.8% | mortality at 7500 µg/mL [8]: 100% | mortality at 10000 µg/mL [9]: 18.9% | mortality at 500 µg/mL [10]: 22.4% | mortality at 2500 µg/mL [11]: 95.8% | mortality at 1000 µg/mL [12]: 51.2% | Activity [13]: Active

C=CCOC(=O)CCCCCCCCCCCCC [ALLYL TETRADECANOATE]
mortality at 10000 µg/mL [1]: 17.8% | mortality at 5000 µg/mL [2]: 97.2% | mortality at 1750 µg/mL [3]: 49.5% | mortality at 10000 µg/mL [4]: 100% | LC90 [5]: 3240 µg/mL (≈ 12.1 mM) | LC50 [5]: 1410 µg/mL (≈ 5.25 mM) | mortality at 100 µg/mL [6]: 4.6% | mortality at 10000 µg/mL [7]: 54.4% | mortality at 7500 µg/mL [8]: 97.7% | mortality at 10000 µg/mL [9]: 27.8% | mortality at 500 µg/mL [10]: 7.5% | mortality at 2500 µg/mL [11]: 87.5% | mortality at 1000 µg/mL [12]: 19.8% | Activity [13]: Active

C=CCOC(=O)CCCCCCCCCCCCCCCCC [ALLYL OCTADECANOATE]
mortality at 10000 µg/mL [1]: 13.3% | mortality at 5000 µg/mL [2]: 82.2% | mortality at 1750 µg/mL [3]: 32.1% | mortality at 10000 µg/mL [4]: 100% | LC90 [5]: 7330 µg/mL (≈ 22.6 mM) | LC50 [5]: 2690 µg/mL (≈ 8.29 mM) | mortality at 100 µg/mL [6]: 0% | mortality at 10000 µg/mL [7]: 43.3% | mortality at 7500 µg/mL [8]: 87.2% | mortality at 10000 µg/mL [9]: 43.3% | mortality at 500 µg/mL [10]: 11.9% | mortality at 2500 µg/mL [11]: 41.6% | mortality at 1000 µg/mL [12]: 17.3% | Activity [13]: Active

C=CCOC(=O)CCCCCCCCCCC [ALLYL DODECANOATE]
mortality at 10000 µg/mL [1]: 12.2% | mortality at 5000 µg/mL [2]: 96.5% | mortality at 1750 µg/mL [3]: 71.7% | mortality at 10000 µg/mL [4]: 100% | LC90 [5]: 2340 µg/mL (≈ 9.73 mM) | LC50 [5]: 1140 µg/mL (≈ 4.74 mM) | mortality at 100 µg/mL [6]: 0% | mortality at 10000 µg/mL [7]: 68.9% | mortality at 7500 µg/mL [8]: 98.8% | mortality at 10000 µg/mL [9]: 18.9% | mortality at 500 µg/mL [10]: 10% | mortality at 2500 µg/mL [11]: 95.9% | mortality at 1000 µg/mL [12]: 36.4% | Activity [13]: Active

C=CCOC(=O)CCCCCCC [ALLYL OCTANOATE]
mortality at 10000 µg/mL [1]: 13.3% | mortality at 5000 µg/mL [2]: 97.7% | mortality at 1750 µg/mL [3]: 83.8% | mortality at 10000 µg/mL [4]: 100% | LC90 [5]: 2180 µg/mL (≈ 11.8 mM) | LC50 [5]: 710 µg/mL (≈ 3.85 mM) | mortality at 100 µg/mL [6]: 9.7% | mortality at 10000 µg/mL [7]: 80% | mortality at 7500 µg/mL [8]: 98.8% | mortality at 10000 µg/mL [9]: 6.7% | mortality at 500 µg/mL [10]: 29.9% | mortality at 2500 µg/mL [11]: 95.9% | mortality at 1000 µg/mL [12]: 59.2% | Activity [13]: Active
